The values that follow are results of earlier work, collected in article PMC5762859, “Distribution analysis of epertinib in brain metastasis of HER2-positive breast cancer by imaging mass spectrometry and prospect for antitumor activity” (Scientific Reports, 2018).

Data set [1] has as its target T1, breast cancer resistance protein (BCRP) (Homo sapiens, UniProt Q9UNQ0).
T1 construct: permeability and efflux ratio of epertinib across Caco-2 cell monolayers; endogenous in cells; host or cells: Caco-2
T1 sequence (Q9UNQ0 1-655): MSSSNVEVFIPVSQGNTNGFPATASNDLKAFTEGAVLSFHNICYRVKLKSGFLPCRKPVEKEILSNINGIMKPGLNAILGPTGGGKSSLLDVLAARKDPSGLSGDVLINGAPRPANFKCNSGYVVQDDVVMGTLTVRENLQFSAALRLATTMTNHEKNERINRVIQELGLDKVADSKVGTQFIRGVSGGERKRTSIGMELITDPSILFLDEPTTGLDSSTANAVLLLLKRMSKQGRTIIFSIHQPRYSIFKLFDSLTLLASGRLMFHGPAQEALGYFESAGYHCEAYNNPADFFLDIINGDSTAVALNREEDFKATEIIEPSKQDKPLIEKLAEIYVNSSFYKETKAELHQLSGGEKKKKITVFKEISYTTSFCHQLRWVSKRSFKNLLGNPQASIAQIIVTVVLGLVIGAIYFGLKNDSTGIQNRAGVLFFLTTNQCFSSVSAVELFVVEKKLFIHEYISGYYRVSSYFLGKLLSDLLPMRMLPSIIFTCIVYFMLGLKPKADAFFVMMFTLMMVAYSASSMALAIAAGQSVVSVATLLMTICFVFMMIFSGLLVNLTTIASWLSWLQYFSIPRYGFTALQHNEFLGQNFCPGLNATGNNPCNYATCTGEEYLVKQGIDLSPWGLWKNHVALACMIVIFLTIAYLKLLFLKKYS
As to conditions: cited from earlier work.

Data set [2] concerns the target T2, P-glycoprotein (P-gp) (Homo sapiens, UniProt P08183).
T2 construct: permeability and efflux ratio of epertinib across Caco-2 cell monolayers; endogenous in cells; host or cells: Caco-2
The following applies: cited from earlier work.

For data set [3] the following is noted: healthy volunteers, single oral 250 mg [14C]-lapatinib; cited from earlier work.
Data set [4] has as its system HER2-positive metastatic breast cancer patients. As to conditions: historical data, combination with trastzumab; cited from earlier work.

T2 sequence (P08183 whole entry): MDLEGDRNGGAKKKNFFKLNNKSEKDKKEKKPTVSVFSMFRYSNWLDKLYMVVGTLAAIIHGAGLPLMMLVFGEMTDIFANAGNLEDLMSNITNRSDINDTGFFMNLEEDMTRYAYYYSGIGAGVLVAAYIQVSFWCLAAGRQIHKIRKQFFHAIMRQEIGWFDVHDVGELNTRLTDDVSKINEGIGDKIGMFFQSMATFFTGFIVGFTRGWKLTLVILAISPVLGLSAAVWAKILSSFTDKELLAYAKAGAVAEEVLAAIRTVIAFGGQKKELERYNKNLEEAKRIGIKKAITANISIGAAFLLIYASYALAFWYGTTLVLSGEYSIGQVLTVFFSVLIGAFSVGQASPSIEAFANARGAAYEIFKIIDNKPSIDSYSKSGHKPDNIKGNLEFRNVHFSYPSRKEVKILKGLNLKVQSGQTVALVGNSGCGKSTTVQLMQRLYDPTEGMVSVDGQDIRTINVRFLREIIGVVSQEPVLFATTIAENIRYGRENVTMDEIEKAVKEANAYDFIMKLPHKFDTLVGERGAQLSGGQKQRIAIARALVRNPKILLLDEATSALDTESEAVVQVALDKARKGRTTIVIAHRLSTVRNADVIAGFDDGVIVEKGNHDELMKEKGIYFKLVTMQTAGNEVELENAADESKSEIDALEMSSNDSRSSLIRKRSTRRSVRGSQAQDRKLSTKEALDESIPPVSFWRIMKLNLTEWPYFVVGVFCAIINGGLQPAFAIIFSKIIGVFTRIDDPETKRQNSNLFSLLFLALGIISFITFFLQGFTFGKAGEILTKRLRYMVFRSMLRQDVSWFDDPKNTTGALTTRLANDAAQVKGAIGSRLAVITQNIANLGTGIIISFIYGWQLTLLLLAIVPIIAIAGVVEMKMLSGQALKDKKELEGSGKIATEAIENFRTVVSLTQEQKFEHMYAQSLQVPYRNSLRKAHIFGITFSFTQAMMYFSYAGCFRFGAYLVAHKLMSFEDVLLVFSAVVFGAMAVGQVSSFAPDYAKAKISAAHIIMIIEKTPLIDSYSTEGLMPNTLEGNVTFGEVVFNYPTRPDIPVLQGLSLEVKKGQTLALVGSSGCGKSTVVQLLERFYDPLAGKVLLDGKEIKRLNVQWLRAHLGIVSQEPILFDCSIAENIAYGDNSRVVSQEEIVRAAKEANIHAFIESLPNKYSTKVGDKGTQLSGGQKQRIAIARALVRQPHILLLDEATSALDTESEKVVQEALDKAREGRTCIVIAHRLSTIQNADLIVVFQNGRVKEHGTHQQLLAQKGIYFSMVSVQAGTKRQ

As for `CN(C)C/C=C/C(=O)Nc1cc2c(Nc3ccc(F)c(Cl)c3)ncnc2cc1O[C@H]1CCOC1` [afatinib], in data set [1], the BCRP substrate result is reported as “substrates”. The P-gp substrate entry in data set [2] was “substrates”.

Take `CS(=O)(=O)CCNCc1ccc(-c2ccc3ncn[14c](Nc4ccc(OCc5cccc(F)c5)c(Cl)c4)c3c2)o1.Cc1ccc(S(=O)(=O)O)cc1.O` [[^14C]-lapatinib]: the “Mean plasma concentration of total radioactivity at Cmax” value in data set [3] is 720 ng eq./mL.

As to `CCOc1cc2ncc(C#N)c(Nc3ccc(OCc4ccccn4)c(Cl)c3)c2cc1NC(=O)/C=C/CN(C)C` [neratinib], the BCRP substrate entry in data set [1] is “substrates”. Moreover, in data set [2], the P-gp substrate entry is recorded as “substrates”.

As for `Cc1cc(Nc2ncnc3ccc(NC4=NC(C)(C)CO4)cc23)ccc1Oc1ccn2ncnc2c1` [tucatinib], the BCRP substrate result in data set [1] was “substrates”. Also, the “Objective response rate (ORR)” value in data set [4] is 26%. Moreover, in data set [2], the P-gp substrate entry was “substrates”.
